Measured values: paper PMC9313597, “In Vitro and in Silico Analysis of Phytochemicals From Fallopia dentatoalata as Dual Functional Cholinesterase Inhibitors for the Treatment of Alzheimer’s Disease” (Frontiers in Pharmacology, 2022)
Values joined by “and” are separate entries in the source; they are usually repeats but may differ in a detail not shown here. Equal values may be shown once. Read-outs that look alike come from different tables or passages of the source.

Key:
AChE [1] = molecular target: T1, AChE (Electrophorus electricus, UniProt O42275); assay: biochemical; settings: for inhibition at 100 µM: read-out: Inhibition of AChE; for IC50: 0.05 Unit/mL enzyme, pH 7.4, 37°C, 30 min, triplicate, mean ± SEM
T1 construct: purchased Sigma-Aldrich Co. (St. Louis, Missouri, United States) C3389
T1 sequence (O42275 24-633): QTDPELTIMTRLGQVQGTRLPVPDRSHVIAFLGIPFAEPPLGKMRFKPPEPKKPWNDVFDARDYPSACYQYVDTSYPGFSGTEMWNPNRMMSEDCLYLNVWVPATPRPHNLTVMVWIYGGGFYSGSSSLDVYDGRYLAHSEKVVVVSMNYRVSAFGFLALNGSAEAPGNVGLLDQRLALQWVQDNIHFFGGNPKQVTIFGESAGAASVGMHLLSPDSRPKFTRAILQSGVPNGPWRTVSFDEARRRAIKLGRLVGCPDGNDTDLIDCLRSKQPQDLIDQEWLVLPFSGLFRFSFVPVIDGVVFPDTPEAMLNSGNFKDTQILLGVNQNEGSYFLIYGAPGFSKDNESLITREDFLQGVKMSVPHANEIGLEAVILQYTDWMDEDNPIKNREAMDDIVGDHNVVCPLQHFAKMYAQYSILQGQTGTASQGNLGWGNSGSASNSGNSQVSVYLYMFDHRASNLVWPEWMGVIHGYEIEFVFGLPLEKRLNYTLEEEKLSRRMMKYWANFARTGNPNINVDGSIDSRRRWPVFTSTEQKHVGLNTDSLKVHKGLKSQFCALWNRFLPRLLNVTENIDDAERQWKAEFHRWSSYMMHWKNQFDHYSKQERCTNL
Description: (§1) All HPLC solvents were purchased from Guangdong Guanghua Sci-Tech Co. Ltd. (Guangzhou, China). […] All chemicals and solvents used in column chromatography and assays were acquired from commercial sources.
(§2) 25 µL of 1 mM DTNB [5,5′-dithiobis (2-nitrobenzoic acide)] and 25 µL of 5 mM substrate, acetylthiocholine iodide (A5751), and butyrylthiocholine iodide (B3253) were sequentially added to wells in the plate. […] The inhibition ratio was calculated using the equation: Inhibitory activity(%)=[(ΔC-ΔI)/ΔC]×100 Where C and I are the intensity of control and inhibitor after 20 min, respectively.
(§3) Compounds were first evaluated in vitro for their inhibitory activities against AChE and BuChE at a concentration of 100 µM.

BuChE [2] = molecular target: T2, BuChE (Equus caballus, UniProt P81908); assay: biochemical; format: biochemical; settings: for inhibition at 100 µM: read-out: Inhibition of BuChE; for IC50: 0.05 Unit/mL enzyme, pH 7.4, 37°C, 30 min, triplicate, mean ± SEM
T2 construct: purchased Sigma-Aldrich Co. (St. Louis, Missouri, United States) C1057
T2 sequence (P81908 whole entry): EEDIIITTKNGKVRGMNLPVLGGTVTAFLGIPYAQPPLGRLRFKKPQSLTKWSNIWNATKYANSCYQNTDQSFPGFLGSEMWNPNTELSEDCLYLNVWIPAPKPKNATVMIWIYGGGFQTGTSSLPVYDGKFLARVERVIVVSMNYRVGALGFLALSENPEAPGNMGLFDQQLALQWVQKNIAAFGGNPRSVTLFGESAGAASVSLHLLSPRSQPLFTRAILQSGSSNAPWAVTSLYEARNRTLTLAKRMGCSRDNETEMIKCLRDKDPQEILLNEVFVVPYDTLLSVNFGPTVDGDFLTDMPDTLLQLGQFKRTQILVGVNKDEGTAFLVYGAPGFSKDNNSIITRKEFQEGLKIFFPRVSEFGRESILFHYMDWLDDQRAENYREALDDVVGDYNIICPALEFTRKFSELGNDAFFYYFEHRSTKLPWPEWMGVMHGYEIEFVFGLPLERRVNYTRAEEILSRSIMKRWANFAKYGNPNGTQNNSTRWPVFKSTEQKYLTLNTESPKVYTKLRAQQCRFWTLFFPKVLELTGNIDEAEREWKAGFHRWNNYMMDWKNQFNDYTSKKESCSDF
Description: as §1, §2, §3

BuChE [3] = molecular target: T2, BuChE; assay: Enzyme kinetics on BuChE (Lineweaver-Burk and Dixon plots); format: biochemical; settings: for Ki: Dixon plots, read-out: BuChE K i; for BuChE Inhibition type: Lineweaver-Burk plots, compound 2–90 µM, substrate 0.07–5 mM
Description: (§4) […]. This was achieved by performing enzyme kinetic studies on AChE/BuChE in the presence of different concentrations of compounds 30–34 (2–90 µM) at various steady-state substrate concentrations (0.07–5 mM). The interactions between compounds and cholinesterase are represented using classic double-reciprocal Lineweaver-Burk and Dixon plots ([Lineweaver and Burk, 1934]; [Dixon, 1953]). […] The resulting linear equations for compounds 30–34 with BuChE led to a series of lines with different slopes that crossed at similar intercepts on the vertical axis and different points on the horizontal axis.

AChE [4] = molecular target: T1, AChE; assay: Enzyme kinetics on AChE (Lineweaver-Burk and Dixon plots); format: biochemical; settings: for Ki: Dixon plots, read-out: AChE K i; for AChE Inhibition type: Lineweaver-Burk plots, compound 2–90 µM, substrate 0.07–5 mM
Description: as §4

Molecule	inhibition at 100 µM (AChE [1])	inhibition at 100 µM (BuChE [2]; at 100 µM)	inhibition at 100 µM (BuChE [2])	inhibition at 100 µM (AChE [1]; at 100 µM)	IC50 (AChE [1])	IC50 (BuChE [2])	Ki (BuChE [3])	BuChE Inhibition type (BuChE [3])	BuChE inhibitory activity relative to Compound 34 (BuChE [2]; from IC50 values (7.5 vs 17.1 µM))	Ki (AChE [4])	AChE Inhibition type (AChE [4])
O=c1cc(-c2ccc(O)cc2)oc2cc(O)cc(O)c12 [Compound 1, apigenin]	> 50%	> 50%									
O=c1c(O[C@@H]2O[C@H](CO)[C@@H](O)[C@H](O)[C@H]2O)c(-c2ccc(O)cc2)oc2cc(O)cc(O)c12 [Compound 5, astragalin]	> 50%		> 50%								
Oc1cc(O)c2c(c1)O[C@H](c1ccc(O)c(O)c1)[C@H](O)C2 [Compound 19, (-)-epicatechin]		> 50%		> 50%							
COc1cc(/C=C/C(=O)OC[C@H]2O[C@@](COC(=O)/C=C/c3ccc(O)c(OC)c3)(O[C@H]3O[C@H](COC(=O)/C=C/c4ccc(O)c(OC)c4)[C@@H](O)[C@H](O)[C@H]3O)[C@@H](OC(=O)/C=C/c3ccc(O)cc3)[C@@H]2O)ccc1O [Compound 30, lapathoside B]					> 100 µM	10.9 ± 4.9 µM	~12.1 µM	Competitive			
COc1cc(/C=C/C(=O)OC[C@H]2O[C@H](O[C@]3(COC(=O)/C=C/c4ccc(O)cc4)O[C@H](COC(=O)/C=C/c4ccc(O)cc4)[C@@H](O)[C@@H]3OC(=O)/C=C/c3ccc(O)cc3)[C@H](O)[C@@H](O)[C@@H]2O)ccc1O [Compound 31, vanicoside B]				> 60%	32.3 ± 4.7 µM	7.5 ± 4.1 µM	~3.5 µM	Competitive	over 2 fold	~30 µM	non-competitive inhibitors
COc1cc(/C=C/C(=O)OC[C@H]2O[C@H](O[C@]3(COC(=O)/C=C/c4ccc(O)c(OC)c4)O[C@H](COC(=O)/C=C/c4ccc(O)cc4)[C@@H](O)[C@@H]3OC(=O)/C=C/c3ccc(O)cc3)[C@H](O)[C@@H](O)[C@@H]2O)ccc1O [Compound 32, lapathoside A]				> 60%	30.6 ± 4.7 µM	2.7 ± 1.7 µM	~1.8 µM	Competitive		~34.4 µM	non-competitive inhibitors
smilaside G [Compound 34]					> 100 µM	17.1 ± 3.4 µM	17.5 µM and ~17.5 µM	Competitive			
smilaside J [Compound 33]					56 ± 2.4 µM	10.1 ± 4.6 µM	~8.5 µM	Competitive			
